Reference: patent US12496350B2 (Ohio State Innovation Foundation, priority 2018, dated 2025)
Read-outs that look alike come from different tables or passages of the source. Blank lines part the entries; values can stand above or below the compound they belong to. Where a SMILES comes first, the peptide text is derived from it. [ ]: non-standard residue; d: D form. The star is where a group is joined. X1 = O=C(O)c1cc(NC(=S)*)ccc1C1c2ccc(O)cc2Oc2cc(O)ccc21; 2Nal = N[C@@H](Cc1ccc2ccccc2c1)C(=O)O; Bta = N[C@@H](Cc1csc2ccccc12)C(=O)O; Pen = CC(C)(S)[C@H](N)C(=O)O; Tle = CC(C)(C)[C@H](N)C(=O)O; Pip = O=C(O)[C@@H]1CCCCN1; AEEA = NCCOCCOCC(=O)O

Tests used:
HeLa cells [1] = conditions: positive control value; cited from earlier work
HeLa cells [2] = assay: Cellular uptake efficiency by flow cytometry; type: cell-based; conditions: for Uptake (% rel.): HeLa cells, 5 μM, 2 h, relative to CPP9 (100%)
Procedure: (§1) Cellular Uptake Efficiency: HeLa cells were seeded into 12-well cell-culture treated plates at a final density of 15×10^4 cells/well in DMEM supplemented with 10% FBS and 1% penicillin/streptomycin and incubated overnight at 37° ° C. and 5% CO2. After 24 h, the media was aspirated followed by washing the cells three times with warm DPBS. Peptides were diluted to a final concentration of 5 μM in DMEM containing 10% FBS with 1% penicillin/streptomycin, added to each well and then incubated for 2 h at 37° C. and 5% CO2. After 2 h, treatment media was aspirated and the cells were washed three times with ice-cold DPBS. Cells were removed from the plate via treatment with trypsin/EDTA and then harvested in ice-cold DPBS followed by centrifugation at ×300 RCF, 4° C. for 5 min. Cells were resuspended in DPBS and quantified using a BD Biosciences LSR II flow cytometer and gated using FlowJo. Values for uptake are provided as a percentage relative to positive control, CPP9 ([cyclo-fΦRrRrQ]-miniPEG-K[NF]).
as §1, with “Cellular Uptake. HeLa cells” for “Cellular Uptake Efficiency: HeLa cells”, “at 37° C. and” for “at 37° ° C. and”, “37° C. with 5% CO2.” for “37° C. and 5% CO2.”, “centrifugation at 300 g, 4° C.” for “centrifugation at ×300 RCF, 4° C.”, “control, CPP9 ([cyclo-fΦRrRrQ]-miniPEG-K[NF]), which has a 62% cytosolic entry efficiency. PGD97 entered HeLa cells at 60% efficiency relative to CPP9, corresponding to an absolute cytosolic entry efficiency of ˜36% (FIG. 9).” for “control, CPP9 ([cyclo-fΦRrRrQ]-miniPEG-K[NF]).”

[3] = molecular target: T1, CAL PDZ domain (CALP5-His) (Homo sapiens, UniProt Q9HD26); assay: FP-based competition assay, Condition B (probe FAM-[…]-OH); type: binding; conditions: for IC50: 500 nM CALP5-His, 5 mM DTT
T1 construct: His
Procedure: Serial dilutions of each competitor peptide were prepared in PBS and the incubation solution was added to each. The combined solutions were gently mixed for 1 h at RT after which 20 uL sample was pipetted into 384-well black-on-black microplates and fluorescence polarization was measured using a TECAN Infinite M1000 plate reader. Data was processed to determine IC50 using GraphPad PRISM ver. 6.0.

HCT116 cell spheroids = assay: Intracellular stability by MALDI imaging; type: in vitro ADME; conditions: after 4 or 24 h incubation with PGD97
Procedure: Intracellular Stability. PGD97 ([…]) was added to HCT116 cell spheroids in RPMI-1640 medium supplemented with 10% FBS and 1% penicillin/streptomycin and incubated for 4 or 24 h. After incubation, spheroids were washed 3× with DPBS, quickly frozen, embedded in a solid support, and cryo-sectioned. Prior to analysis, sinapinic acid was sublimed onto individual slides. The sample was imaged using a Bruker ultrafleXtreme MALDI-TOF-TOF and analyzed for the presence of proteolytic degradation fragments. Heatmaps, scaled relative to the most intense signal, were generated for the intact peptide (both 29 and 32) as well as ˜20 potential proteolytic fragments at each time point. […] A degradation fragment (#1) corresponding to proteolytic cleavage between Thr and Arg (FIG. 8B) was observed, but none of the other potential degradation products were observed. […] Most importantly, significant concentrations of intact peptide 29 was still present inside the cells after 24 h.

NHERF1-PDZ1 (N1P1) = molecular target: T2, NHERF1-PDZ1 (N1P1) (Homo sapiens, UniProt O14745); assay: Direct fluorescence polarization binding of FITC-labeled peptide
T2 sequence (O14745 14-94 limits assumed): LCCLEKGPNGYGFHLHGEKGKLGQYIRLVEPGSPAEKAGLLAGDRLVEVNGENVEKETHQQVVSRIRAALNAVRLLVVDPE
Procedure: (§2) Binding Affinity and Selectivity. The potency and selectivity of inhibitor 29 was first assessed by comparing its binding affinity to the four PDZ domains of CAL, NHERF1, and NHERF2, which are involved in the trafficking of CFTR to and from the plasma membrane. Peptides were labeled with FITC at the N-terminus through a miniPEG linker and tested for binding to various PDZ domains by fluorescence polarization (FP). FITC-labeled peptide (50 nM) was incubated with varying concentrations of PDZ domain in PBS (pH 7.4) containing 0.01% Triton X-100 and 2 mM TCEP for 1 h at room temperature. After 1 h, 20 μL of each sample was pipetted into 384-well black-on-black microplates and fluorescence polarization was measured by using a TECAN Infinite M1000 plate reader. Data was processed using GraphPad PRISM ver. 8.0.

[4] = molecular target: T1, CAL PDZ domain (CALP5-His); assay: Direct fluorescence polarization binding of labeled peptide, Condition C
Procedure: Condition C (denoted with superscript ^C): 50 nM labeled peptide was incubated with 2 mM TCEP in PBS at pH 7.4 containing 0.01% Triton-X100. CALP5-His was serially diluted in PBS containing 0.01% Triton-X100 to which was then added the peptide and TCEP solution. This solution was mixed for 1 h at RT then 20 uL was pipetted into 384-well microplates and fluorescence polarization was measured using a TECAN Infinite M1000 plate reader. KD values were calculated using KaleidaGraph v. 3.6 using the equation: […]
as §2

[5] = Preliminary tests of cellular activity; type: cell-based; conditions: 50 nM concentration
NHERF2-PDZ2 (N2P2) = molecular target: T3, NHERF2-PDZ2 (N2P2) (Homo sapiens, UniProt Q15599); assay: Direct fluorescence polarization binding of FITC-labeled peptide; conditions: 50 nM FITC-labeled peptide, FP
T3 construct: PDZ1 (N2P1), and NHERF2-PDZ2 domains (N2P2)
Procedure: as §2

NHERF2-PDZ1 (N2P1) = molecular target: T4, NHERF2-PDZ1 (N2P1) (Homo sapiens, UniProt Q15599); assay: as above; conditions: 50 nM FITC-labeled peptide, FP
T4 construct: PDZ1 (N2P1), and NHERF2-PDZ2 domains (N2P2)
Procedure: as §2

[6] = HCT116 cell spheroids in RPMI-1640 medium supplemented with 10% FBS and 1% penicillin/streptomycin; conditions: up to 24 h
LC3-II = assay: Autophagy in macrophages, western blotting for LC3-II; type: cell-based, human; conditions: 10 μM, ΔF508 CFTR macrophages
Procedure: Effect on Autophagy in Macrophage. Human primary ΔF508 CFTR macrophages were incubated with 10 μM VX809 (n=1) or 100 nM PGD97 (n=2) for 48 h in complete growth medium supplemented with 10% FBS and 1% penicillin/streptomycin at 37° C. Induction of autophagy was determined via western blotting for autophagy-associated protein LC3-II.

[7] = Condition B (superscript b): 100 nM probe FAM-ANSRWPTSII-OH
[8] = 50 nM FITC-labeled peptide, FP, read-out: KD (nM) CALP
[9] = FITC-labeled peptide, FP, read-out: Affinity (KD)
[10] = Condition B (superscript b): 100 nM probe FAM-[…]-OH
[11] = 50 nM FITC-labeled peptide, FP, read-out: KD (nM) N1P1

T3 sequence (Q15599 150-230 limits assumed): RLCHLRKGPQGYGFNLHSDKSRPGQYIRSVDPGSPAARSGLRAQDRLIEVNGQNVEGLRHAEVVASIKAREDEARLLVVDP
T4 sequence (Q15599 11-90 limits assumed): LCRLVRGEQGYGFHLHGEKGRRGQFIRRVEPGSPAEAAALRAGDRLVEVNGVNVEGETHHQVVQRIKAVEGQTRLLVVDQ

Uptake (% rel.) (HeLa cells [2]): 92% | cell-permeability, fold higher (HeLa cells [2]; relative to peptide 22): 4 fold | IC50 [3, 7]: 380 nM | decrease of CAL binding ([3]; relative to peptide 22): ~2 fold
Compound: CC(=O)N[C@@H](CS)C(=O)N[C@H](CCCNC(=N)N)C(=O)N[C@@H](CCCNC(=N)N)C(=O)N[C@@H](CCCNC(=N)N)C(=O)N[C@@H](Cc1ccc2ccccc2c1)C(=O)N[C@@H](Cc1c[nH]c2ccccc12)C(=O)N[C@H](C(=O)N[C@H](C(=O)N[C@H](C(=O)N[C@@H](CCCNC(=N)N)C(=O)N[C@H](C(=O)O)C(C)(C)C)[C@@H](C)O)C(C)(C)C)C(C)(C)S [Compound 24, Ac-Cys-(D-Arg)-Arg-Arg-(2-Nal)-Trp-Pen-Tle-Thr-Arg-Tle-OH] (Ac-C[dR]RR[2Nal]W[Pen][Tle]TR[Tle]-OH)

presence of intact peptide in spheroids (HCT116 cell spheroids): High concentrations | Kd (NHERF1-PDZ1 (N1P1); range over N1P1, N2P1 and N2P2, read-out: KD values for NHERF1/2 PDZ domains): 780 to 7480 nM | Kd [4, 8]: 6 ± 3 nM | Kd [4, 9]: 6 nM | improvement of CAL PDZ-binding affinity ([4]; Pip for Pro): ~15 fold | selectivity for CAL vs NHERF PDZ domains ([4]; ratio of KD values, NHERF1/2 PDZ domains vs CAL PDZ): ≥ 130 fold
Compound: CC(=O)N[C@@H](CS)C(=O)N[C@H](CCCNC(=N)N)C(=O)N[C@@H](CCCNC(=N)N)C(=O)N[C@@H](CCCNC(=N)N)C(=O)N[C@@H](Cc1ccc2ccccc2c1)C(=O)N[C@@H](Cc1csc2ccccc12)C(=O)N1CCCC[C@H]1C(=O)N[C@H](C(=O)N[C@H](C(=O)N[C@@H](CCCNC(=N)N)C(=O)N[C@H](C(=O)O)C(C)(C)C)[C@@H](C)O)C(C)(C)S [Compound 29, Ac-Cys-(D-Arg)-Arg-Arg-Nal-Bta-Pip-Pen-Thr-Arg-Tle-OH] (Ac-C[dR]RR[2Nal][Bta][Pip][Pen]TR[Tle]-OH)

improvement in cell-permeability (HeLa cells [2]; Bta for Trp at P-5, relative to peptide 24): > 5 fold | Uptake (% rel.) (HeLa cells [2]): 518 ± 74% | cell-permeability, fold better (HeLa cells [2]; relative to CPP9): 5 fold | cell-permeability, fold better (HeLa cells [2]; relative to peptide 20): ~20 fold | IC50 [3, 10]: 235 nM | potency in CAL binding, fold more potent ([3]; relative to peptide 24): 1.5 fold
Compound: CC(=O)N[C@@H](CS)C(=O)N[C@H](CCCNC(=N)N)C(=O)N[C@@H](CCCNC(=N)N)C(=O)N[C@@H](CCCNC(=N)N)C(=O)N[C@@H](Cc1ccc2ccccc2c1)C(=O)N[C@@H](Cc1csc2ccccc12)C(=O)N[C@H](C(=O)N[C@H](C(=O)N[C@H](C(=O)N[C@@H](CCCNC(=N)N)C(=O)N[C@H](C(=O)O)C(C)(C)C)[C@@H](C)O)C(C)(C)C)C(C)(C)S [Compound 25, Ac-Cys-(D-Arg)-Arg-Arg-(2-Nal)-(Bta)-Pen-Tle-Thr-Arg-Tle-OH] (Ac-C[dR]RR[2Nal][Bta][Pen][Tle]TR[Tle]-OH)
cellular activity [5]: robust cellular activity

Kd (NHERF2-PDZ2 (N2P2)): 7480 ± 580 nM | Kd (NHERF1-PDZ1 (N1P1); [11]): 780 ± 10 nM | Kd (NHERF2-PDZ1 (N2P1)): 1370 ± 380 nM | Kd [4, 8]: 6 ± 3 nM | Kd [4, 9]: 6 ± 3 nM
Compound: C[C@@H](O)[C@H](NC(=O)[C@@H](NC(=O)[C@@H]1CCCCN1C(=O)[C@H](Cc1csc2ccccc12)NC(=O)[C@H](Cc1ccc2ccccc2c1)NC(=O)[C@H](CCCNC(=N)N)NC(=O)[C@H](CCCNC(=N)N)NC(=O)[C@@H](CCCNC(=N)N)NC(=O)[C@H](CS)NC(=O)COCCOCCNC(=S)Nc1ccc(C2c3ccc(O)cc3Oc3cc(O)ccc32)c(C(=O)O)c1)C(C)(C)S)C(=O)N[C@@H](CCCNC(=N)N)C(=O)N[C@H](C(=O)O)C(C)(C)C [Compound 29-FITC, FITC-miniPEG-Cys-(D-Arg)-Arg-Arg-Nal-Bta-Pip-Pen-Thr-Arg-Tle-OH] ({X1-AEEA}-C[dR]RR[2Nal][Bta][Pip][Pen]TR[Tle]-OH)

Further lines, the compound ahead of its results:

Compound: [cyclo-fΦRrRrQ]-miniPEG-K[NF] [CPP9]
cytosolic entry efficiency (HeLa cells [1]): 62%

Compound: CC(=O)N[C@@H](CS)C(=O)N[C@H](CCCNC(=N)N)C(=O)N[C@H](CCCNC(=N)N)C(=O)N[C@@H](CCCNC(=N)N)C(=O)N[C@@H](Cc1ccc2ccccc2c1)C(=O)N[C@@H](Cc1c[nH]c2ccccc12)C(=O)N[C@@H](CCC(N)=O)C(=O)N[C@H](C(=O)N[C@H](C(=O)N[C@@H](CCCNC(=N)N)C(=O)N[C@H](C(=O)O)C(C)(C)C)[C@@H](C)O)C(C)(C)S [Compound 21, Ac-Cys-(D-Arg)-(D-Arg)-Arg-(2-Nal)-Trp-Gln-Pen-Thr-Arg-Tle-OH] (Ac-C[dR][dR]R[2Nal]WQ[Pen]TR[Tle]-OH)
Uptake (% rel.) (HeLa cells [2]): 23 ± 4% | IC50 [3, 7]: 270 nM

Compound: CC(=O)N[C@@H](CS)C(=O)N[C@H](CCCNC(=N)N)C(=O)N[C@@H](CCCNC(=N)N)C(=O)N[C@@H](CCCNC(=N)N)C(=O)N[C@@H](Cc1ccc2ccccc2c1)C(=O)N[C@@H](Cc1c[nH]c2ccccc12)C(=O)N[C@@H](CCC(N)=O)C(=O)N[C@H](C(=O)N[C@H](C(=O)N[C@@H](CCCNC(=N)N)C(=O)N[C@H](C(=O)O)C(C)(C)C)[C@@H](C)O)C(C)(C)S [Compound 20, Ac-Cys-(D-Arg)-Arg-Arg-(2-Nal)-Trp-Gln-Pen-Thr-Arg-Tle-OH] (Ac-C[dR]RR[2Nal]WQ[Pen]TR[Tle]-OH)
Uptake (% rel.) (HeLa cells [2]): 28 ± 1% | IC50 [3, 10]: 165 nM | Kd (NHERF2-PDZ2 (N2P2)): 4970 ± 890 nM | Kd (NHERF1-PDZ1 (N1P1); [11]): 1640 ± 150 nM | Kd (NHERF2-PDZ1 (N2P1)): 2980 ± 150 nM | Kd [4, 8]: 110 nM | Kd ([4]; FITC-labeled peptide 20, FP, read-out: KD for CAL PDZ domain (FIG. 3A)): ~50 nM

Compound: Ac-Cys-(D-Arg)-Arg-Arg-Nal-Bta-Pip-Pen-Thr-Arg-Tle-OH
cleaved bond [6]: Thr-Arg

Compound: CC(C)(CO)c1cc2cc(NC(=O)C3(c4ccc5c(c4)OC(F)(F)O5)CC3)c(F)cc2n1C[C@@H](O)CO [VX661, Tezacaftor, reference compound]
LC3-II protein levels (LC3-II): also effective
